Data on three molecules can be found in patent US8058242B2, “Chimeric proteins with natriuretic activity” (The University of Queensland, priority 2004, dated 2011).

Positions of bridges follow the written chain, without caps; N, C: chain ends. Residues, ends and D or L forms follow the SMILES beside them.

Test [1] deals with conscious normotensive rabbits. The test is described as follows: Blood pressure and heart rate in conscious normotensive rabbits, intravenous bolus of TDT analogs (Example 17). The following applies: i.v. bolus 0.24 mg/kg; for MAP, mean difference from control: at MAP minimum.
Test [2] has as its target T1, NPR-A signaling in HeLa cells (Homo sapiens, UniProt P16066).
T1 construct: Cyclic GMP (cGMP) elevation in HeLa cells in response to Natriuretic Peptide stimulation; endogenous in cells; host or cells: HeLa cells
T1 sequence (P16066 33-1061): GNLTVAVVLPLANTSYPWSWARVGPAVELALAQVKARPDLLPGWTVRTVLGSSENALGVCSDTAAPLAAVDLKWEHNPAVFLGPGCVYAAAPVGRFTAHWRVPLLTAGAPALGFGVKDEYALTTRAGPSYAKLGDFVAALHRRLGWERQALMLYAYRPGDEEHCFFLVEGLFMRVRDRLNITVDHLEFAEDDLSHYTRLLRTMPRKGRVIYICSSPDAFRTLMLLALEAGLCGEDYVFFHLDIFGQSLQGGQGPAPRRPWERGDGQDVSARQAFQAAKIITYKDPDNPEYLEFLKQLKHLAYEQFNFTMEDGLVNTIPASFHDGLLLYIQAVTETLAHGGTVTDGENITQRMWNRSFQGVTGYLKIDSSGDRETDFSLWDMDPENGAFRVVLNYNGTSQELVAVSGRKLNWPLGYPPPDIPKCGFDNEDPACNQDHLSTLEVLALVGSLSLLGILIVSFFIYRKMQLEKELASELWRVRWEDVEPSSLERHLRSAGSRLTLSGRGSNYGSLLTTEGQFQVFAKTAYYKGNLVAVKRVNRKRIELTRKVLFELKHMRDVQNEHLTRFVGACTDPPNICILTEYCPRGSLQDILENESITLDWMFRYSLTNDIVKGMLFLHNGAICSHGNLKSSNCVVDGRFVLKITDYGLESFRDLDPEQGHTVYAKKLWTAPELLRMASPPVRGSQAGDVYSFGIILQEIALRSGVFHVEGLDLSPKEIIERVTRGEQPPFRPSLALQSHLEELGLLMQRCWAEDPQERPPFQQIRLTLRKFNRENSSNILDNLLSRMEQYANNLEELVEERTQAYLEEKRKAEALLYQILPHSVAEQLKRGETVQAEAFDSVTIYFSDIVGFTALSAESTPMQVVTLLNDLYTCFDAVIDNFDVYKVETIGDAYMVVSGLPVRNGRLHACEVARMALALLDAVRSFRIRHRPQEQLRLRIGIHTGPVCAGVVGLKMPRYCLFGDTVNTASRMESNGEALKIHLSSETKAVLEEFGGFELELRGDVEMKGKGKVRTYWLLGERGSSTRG
Nature of the test: cGMP AlphaScreen assay in HeLa cells (Examples 14, 15). It counts as cell-based. The following applies: 30 minutes at 37° C. On the procedure: HeLa cells were maintained in RPMI cell culture medium (Gihco Invitrogen, Mt Waverley, Australia) supplemented with 10% Foetal Bovine Serum (Cambrex Bio Science, Rockland, USA). Upon reaching confluence, cells were sub-cultured such that they would be 70-90% confluent at time of assay.
Cyclic GMP (cGMP) elevation in HeLa cells in response to Natriuretic Peptide stimulation was performed using a cGMP AlphaScreen kit (PerkinElmer, Boston, USA), as follows for normal experiments: Cells were detached, pelleted to remove growth medium, and resuspended in Stimulation Buffer (Hank's Balanced Salt Solution, 0.1% Bovine Serum Albumin [BSA] (Sigma-Aldrich, Castle Hill, Australia), 1 mM 3-Isobutyl-1-methylxanthine [IBMX] (Sigma-Aldrich, Castle Hill, Australia)) and diluted to 6×10^6 cells per mL (30 000 cells per 5 μL). 5 μL of cells were added to wells of white 384-well OptiPlates (PerkinElmer, Boston, USA), and stimulated with increasing concentrations of peptide for 30 minutes at 37° C. Cells were then lysed with 10 μL Lysis buffer (dH2O, 0.3% Tween-20 (Sigma-Aldrich, Castle Hill, Australia), 5 mM HEPES (JRH Biosciences, Kansas, USA) and 0.1% BSA) and 5 μL acceptor bead mix (10 μL per mL acceptor beads and 1/3000 anti-cGMP antibody (BioVision, Mountain View, USA) in lysis buffer) added per well in the dark. Plates were incubated in the dark at room temperature for 30 minutes, then 5 μL donor bead mix (10 μL per ML donor beads and 0.3 nM biotinylated cGMP in lysis buffer) was added per well in the dark and the plate incubated overnight at room temperature. Signal was read using an EnVision plate reader (PerkinElmer, Boston, USA) and data analysed using Prism software. The cGMP standard curve was performed as per manufacturer's instructions.
To examine whether TNPc and synthetic analogs produced in the inventors' laboratory could stimulate NPR-A signaling, cGMP elevations in HeLa cells in response to these peptides were measured, as described above.

Where [3] appears, read: −Log10EC50 (pEC50) ± Standard Error, cGMP accumulation in HeLa cells.

For `CC[C@H](C)[C@H](NC(=O)[C@H](CCCCN)NC(=O)[C@H](CO)NC(=O)[C@H](CC(=O)O)NC(=O)[C@@H](N)CO)C(=O)NCC(=O)N[C@@H](CC(N)=O)C(=O)NCC(=O)N[C@H]1CSSC[C@@H](C(=O)N[C@@H](CC(N)=O)C(=O)N[C@@H](CCCNC(=N)N)C(=O)N[C@H](C(=O)N[C@@H](CCSC)C(=O)N[C@@H](CCC(N)=O)C(=O)N[C@@H](CC(N)=O)C(=O)N2CCC[C@H]2C(=O)N2CCC[C@H]2C(=O)N[C@@H](CCCCN)C(=O)N[C@@H](CCCCN)C(=O)N[C@@H](Cc2ccccc2)C(=O)N[C@@H](CO)C(=O)NCC(=O)N[C@@H](CCC(=O)O)C(=O)O)[C@@H](C)CC)NC(=O)CNC(=O)[C@H](CC(C)C)NC(=O)[C@H](CC(N)=O)NC(=O)[C@H](CO)NC(=O)[C@H](C(C)C)NC(=O)[C@H](Cc2c[nH]cn2)NC(=O)[C@H](CC(N)=O)NC(=O)[C@H]([C@@H](C)CC)NC(=O)[C@H](CCCNC(=N)N)NC(=O)[C@H](CC(=O)O)NC(=O)[C@H]([C@@H](C)CC)NC(=O)[C@H](CCCCN)NC(=O)[C@H](CCCNC(=N)N)NC(=O)CNC(=O)[C@H](Cc2ccccc2)NC1=O` [H12R-TDT], in test [1], the “HR, mean difference from control” value was −7±5 b/min; the “time after administration at which the MAP effect occurred, on average” value is 97 min; the “MAP, mean difference from control” value is given as −9.2±2.2 mmHg.
In the case of `CC[C@H](C)[C@H](NC(=O)[C@H](CCCCN)NC(=O)[C@H](CO)NC(=O)[C@H](CC(=O)O)NC(=O)[C@@H](N)CO)C(=O)NCC(=O)N[C@@H](CC(N)=O)C(=O)NCC(=O)N[C@H]1CSSC[C@@H](C(=O)N[C@@H](CC(N)=O)C(=O)N[C@@H](CCCNC(=N)N)C(=O)N[C@H](C(=O)N[C@@H](CCSC)C(=O)N[C@@H](CCC(N)=O)C(=O)N[C@@H](CC(N)=O)C(=O)N2CCC[C@H]2C(=O)N2CCC[C@H]2C(=O)N[C@@H](CCCCN)C(=O)N[C@@H](CCCCN)C(=O)N[C@@H](Cc2ccccc2)C(=O)N[C@@H](CO)C(=O)NCC(=O)N[C@@H](CCC(=O)O)C(=O)O)[C@@H](C)CC)NC(=O)CNC(=O)[C@H](CC(C)C)NC(=O)CNC(=O)[C@H](CO)NC(=O)[C@H](C(C)C)NC(=O)[C@H](Cc2c[nH]cn2)NC(=O)[C@H](CC(N)=O)NC(=O)[C@H]([C@@H](C)CC)NC(=O)[C@H](CCCNC(=N)N)NC(=O)[C@H](CC(=O)O)NC(=O)[C@H]([C@@H](C)CC)NC(=O)[C@H](CCCCN)NC(=O)[C@H](Cc2c[nH]cn2)NC(=O)CNC(=O)[C@H](Cc2ccccc2)NC1=O` [N22G-TDT] (H-SDSKIGNGCFGHKIDRINHVSGLGCNRIMQNPPKKFSGE-OH; disulfide 9-25), the EC50 in test [2] (setting [3]) was 3.14 nM. Further, in test [1], the “HR, mean difference from control” value is listed as “little effect on HR”; the “time after administration at which the MAP effect occurred, on average” value stood at 140 min; the “MAP, mean difference from control” value is given as −17.4±7.6 mmHg.
With `CC[C@H](C)[C@H](NC(=O)[C@H](CCCCN)NC(=O)[C@H](CO)NC(=O)[C@H](CC(=O)O)NC(=O)[C@@H](N)CO)C(=O)NCC(=O)N[C@@H](CC(N)=O)C(=O)NCC(=O)N[C@H]1CSSC[C@@H](C(=O)N[C@@H](CC(N)=O)C(=O)N[C@@H](CCCNC(=N)N)C(=O)N[C@H](C(=O)N[C@@H](CCSC)C(=O)N[C@@H](CCC(N)=O)C(=O)N[C@@H](CC(N)=O)C(=O)N2CCC[C@H]2C(=O)N2CCC[C@H]2C(=O)N[C@@H](CCCCN)C(=O)N[C@@H](CCCCN)C(=O)N[C@@H](Cc2ccccc2)C(=O)N[C@@H](CO)C(=O)NCC(=O)N[C@@H](CCC(=O)O)C(=O)O)[C@@H](C)CC)NC(=O)CNC(=O)[C@H](CC(C)C)NC(=O)[C@H](CC(N)=O)NC(=O)[C@H](CO)NC(=O)[C@H](C)NC(=O)[C@H](Cc2c[nH]cn2)NC(=O)[C@H](CC(N)=O)NC(=O)[C@H]([C@@H](C)CC)NC(=O)[C@H](CCCNC(=N)N)NC(=O)[C@H](CC(=O)O)NC(=O)[C@H]([C@@H](C)CC)NC(=O)[C@H](CCCCN)NC(=O)[C@H](Cc2c[nH]cn2)NC(=O)CNC(=O)[C@H](Cc2ccccc2)NC1=O` [V20A-TDT] (H-SDSKIGNGCFGHKIDRINHASNLGCNRIMQNPPKKFSGE-OH; disulfide 9-25), the EC50 is 455 nM in test [2] (EC50, cGMP accumulation in HeLa cells) and 382 nM in test [2] (setting [3]).
